By GI50 is commonly meant the concentration that inhibits growth by half. High values mean less potent growth inhibition, low ones more potent growth inhibition. Broadly, the IC50 is the midpoint of a concentration-inhibition curve. Lower therefore signals greater potency.

Results on one molecule are retold here after PMC5787524, “Discovery of a FLT3 inhibitor LDD1937 as an anti-leukemic agent for acute myeloid leukemia” (Oncotarget, 2017).

The subject of one data set is Jurkat cells. Put plainly: Cell viability / growth inhibition (EZ-Cytox), Jurkat. The format is cell-based. The conditions noted are these: Homo sapiens, Table 2, 72 h. As to the method: (§1) MV-4-11 human acute myeloid leukemia cells were purchased from the American Type Culture Collection (ATCC, Rockville, MD, USA, CRL-9591), and the cells were cultured in IMDM medium (Sigma Co., St. Louis, MO, USA) supplemented with 10% fetal bovine serum, 1% penicillin/streptomycin and 4 mM L-glutamine (Life Technology, Grand Island, NY). Jurkat (human acute T lymphocytic leukemia, ATCC TIB-152) and K562 (human chronic myelogenous leukemia, ATCC CCL-243) cells were cultured in RPMI-1640 (Sigma Co.), and MCF7 (human breast adenocarcinoma, ATCC HTB-22) and PC-3 (human prostate adenocarcinoma, ATCC CRL-1435) cells were cultured in DMEM (Sigma Co.) medium supplemented with 10% fetal bovine serum and 1% penicillin/streptomycin. The cultured cells were incubated at 37°C with 5% CO2. Cell viability was assessed with a tetrazolium-based assay using the EZ-Cytox Cell Viability Assay kit (DaeilLab, Korea). Briefly, 2,000 ∼ 15,000 cells were plated in 96-well flat bottom plates in 100 µl of medium. The next day, the cells were treated with compounds along with dimethyl sulfoxide (DMSO, Fisher, Waltham, MA, USA) as a negative control. […] After incubation, the optical density (OD) was measured at a wavelength of 450 nm with a Victor multilabel reader (Perkin Elmer, Waltham, MA, USA). The IC50 was calculated with nonlinear regression using Prism version 5.01 (GraphPad, La Jolla, CA, USA).

The target in another data set is JAK2 (Homo sapiens, UniProt O60674). Put plainly: In vitro JAK2 kinase assay (HTRF). Type of data set: biochemical. The conditions noted are these: mean ± S.D. Here is the method: The inhibition of the FLT3 kinase activity was measured with homogeneous, time-resolved fluorescence (HTRF) assays. Recombinant proteins containing the FLT3 kinase domain were purchased from Carna biosciences (Japan). Optimal enzyme, ATP, and substrate concentrations were established with the HTRF KinEASE kit (Cisbio, France) according to the manufacturer’s instructions. The FLT3 enzymes were mixed with serially diluted compounds and peptide substrates in a kinase reaction buffer (50 mM HEPES (pH 7.0), 500 μM ATP, 0.1 mM sodium orthovanadate, 5 mM MgCl2, 1 mM DTT, 0.01% bovine serum albumin (BSA), and 0.02% NaN3). After the addition of the reagents for detection, the TR-FRET signal was measured with a Victor multilabel reader (Perkin Elmer, Waltham, MA, USA). The IC50 was calculated with nonlinear regression using Prism version 5.01 (GraphPad). JAK2, JAK3, cMET, and RET in vitro kinase assays were also carried out using the HTRF assay kit.
(TR-FRET usually uses a lanthanide donor and a delayed reading to cut background.)

Another data set deals with MV-4-11 xenograft. Put plainly: MV-4-11 mouse tumor xenograft. Type of data set: in vivo, BALB/c nu/nu mice. As to the method: MV-4-11 cells were inoculated subcutaneously in the flank of female BALB/c nu/nu (athymic nude) mice (5 × 10^6 cells per mouse). […] The drug or the control PBS was administered daily for a duration of 21 days. Tumor sizes were measured twice a week for 21 days, and the tumor volumes were calculated with the following formula: V (volume) = X (length) × D (width)^2/2. After 21 days, the mice were sacrificed, and the tumor weights were measured.

The subject of data set [1] is cyclin D1 level in MV-4-11 cells. Put plainly: Cyclin D1 western blot. The format is cell-based, human. The conditions noted are these: MV-4-11, 16 h, from as low as 10 nM. As to the method: Cells were lysed in SDS Lysis buffer (12 mM Tris-Cl, pH 6.8, 5% glycerol, and 0.4% SDS), and the protein concentrations were measured with the SMART BCA Protein Assay kit (iNtRON Biotechnology, Korea). The proteins were resolved with SDS-polyacrylamide gel electrophoresis followed by transfer to PVDF membranes (Millipore, Billerica, MA, USA) and incubated overnight with the appropriate antibodies. The antibodies used were as follows: phospho-STAT5 (p-STAT5; rabbit polyclonal IgG; #9351, 1:1,000), cyclin D1 (rabbit polyclonal IgG; #2922, 1:1,000), and PARP (rabbit polyclonal IgG; #9542, 1:1,000) from Cell Signaling Technology (Danver, MA, USA), STAT5 (rabbit polyclonal IgG; #sc-835, 1:1,000) from Santa Cruz (Santa Cruz, CA, USA), and β-actin (mouse monoclonal IgG; # A5441, 1:5000) from Sigma-Aldrich. Goat anti-rabbit IgG (#111-035-003; 1;5,000) and anti-mouse IgG (#115-035-033; 1:5,000) secondary antibodies were obtained from Jackson ImmunoResearch Laboratories, Inc. (West Grove, PA, USA).

Data set [2] in a line: Parallel artificial membrane permeability (PAMPA) assay. Type of data set: in vitro ADME.
Another data set deals with K562 cells. Put plainly: Cell viability / growth inhibition (EZ-Cytox), K562. Type of data set: cell-based. The conditions noted are these: Homo sapiens, Table 2, 72 h. Here is the method:
as §1

For the next data set, the system named is MCF-7 cells. Put plainly: Cell viability / growth inhibition (EZ-Cytox), MCF-7. The format is cell-based. The conditions noted are these: Homo sapiens, MCF7; Table 2, 72 h. As to the method:
as §1

In another data set the test system is leukemic cells. Put plainly: Differentiation of leukemic cells (Wright-Giemsa staining). The format is cell-based. The following applies: data not shown.

Each structure is given as a SMILES string. “Also recorded” adds a separate entry of the source.

JAK2, sequence (O60674 whole entry, species assumed, the tested form may be a part): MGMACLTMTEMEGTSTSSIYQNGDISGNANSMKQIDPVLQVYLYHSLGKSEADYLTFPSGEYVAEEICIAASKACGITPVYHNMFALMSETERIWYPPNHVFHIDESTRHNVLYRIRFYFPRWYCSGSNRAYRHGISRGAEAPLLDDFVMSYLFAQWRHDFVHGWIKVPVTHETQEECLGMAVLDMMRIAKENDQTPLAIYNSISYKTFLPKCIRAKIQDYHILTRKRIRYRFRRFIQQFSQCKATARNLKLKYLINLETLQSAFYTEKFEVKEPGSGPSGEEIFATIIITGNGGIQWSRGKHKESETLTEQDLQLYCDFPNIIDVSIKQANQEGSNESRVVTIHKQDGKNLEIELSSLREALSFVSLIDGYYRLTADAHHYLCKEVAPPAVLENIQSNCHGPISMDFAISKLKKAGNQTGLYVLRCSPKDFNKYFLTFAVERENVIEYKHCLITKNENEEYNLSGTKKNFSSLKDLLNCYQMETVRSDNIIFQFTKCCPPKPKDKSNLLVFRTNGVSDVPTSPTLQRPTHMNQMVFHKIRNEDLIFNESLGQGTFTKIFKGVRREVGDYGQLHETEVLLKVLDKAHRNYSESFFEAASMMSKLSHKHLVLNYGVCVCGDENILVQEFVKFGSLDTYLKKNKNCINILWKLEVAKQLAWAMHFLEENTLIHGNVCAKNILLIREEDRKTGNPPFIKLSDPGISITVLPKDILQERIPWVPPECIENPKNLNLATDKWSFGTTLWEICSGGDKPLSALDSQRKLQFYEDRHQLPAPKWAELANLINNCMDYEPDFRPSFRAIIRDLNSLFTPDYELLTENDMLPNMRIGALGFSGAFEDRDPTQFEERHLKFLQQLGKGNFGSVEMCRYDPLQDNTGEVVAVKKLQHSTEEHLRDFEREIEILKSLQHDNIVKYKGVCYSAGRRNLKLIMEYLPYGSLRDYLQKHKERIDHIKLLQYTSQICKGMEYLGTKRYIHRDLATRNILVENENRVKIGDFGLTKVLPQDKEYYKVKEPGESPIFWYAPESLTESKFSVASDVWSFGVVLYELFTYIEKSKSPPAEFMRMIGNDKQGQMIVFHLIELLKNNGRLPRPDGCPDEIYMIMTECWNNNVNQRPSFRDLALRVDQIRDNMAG

On to `COC(=O)c1ccc2c(c1)/C(=C1/Nc3ccccc3/C1=N\OCCN1CCNCC1)C(=O)N2.Cl.Cl` [LDD1937, methyl (2Z,3E)-2′-oxo-3-((2-(piperazin-1-yl)ethoxy)imino)-[2,3′-biindolinylidene]-5′-carboxylate dihydrochloride], for which the results for the GI50 in the data set on Jurkat cells, in the data set on K562 cells and in the data set on MCF-7 cells were 1.44 ± 0.29 µM, 1.21 ± 0.33 µM and 2.14 ± 0.16 µM, respectively. This molecule returned a concentration for half-maximal inhibition (IC50) at JAK2 of 0.523 ± 0.0727 µM. The tumor weight entry in the data set with MV-4-11 xenograft (5 mg/kg intravenous daily, day 21, vs control) is given as “significant reduction”. In the data set on MV-4-11 xenograft (10 mg/kg intravenous daily for 21 days), the “tumor volume / tumor mass” value is recorded as “the tumor disappeared from day 3; also recorded: completely disappear from day 3”. The body weight result in the data set on MV-4-11 xenograft (5 and 10 mg/kg intravenous daily, administration period, between groups) is “no significant difference in body weight”. The “tumor volume and weight” value in the data set on MV-4-11 xenograft (5 and 10 mg/kg intravenous, vs control) was “significantly reduced”. In data set [1], the “cyclin D1 level” value is recorded as “dose-dependent reduction of the cyclin D level”. In addition, the PAMPA assay result in data set [2] is “–4.49 ± 0.140”. The “PAMPA level of permeability” value in data set [2] was “medium level of permeability”. Moreover, in the data set on leukemic cells, the “differentiated cells (Wright-Giemsa staining)” value is given as “differentiated cells were not observed”.
